Assay results from patent publication US11478469B2, “Combination product of BCL-2 inhibitor and MDM2 inhibitor and use thereof in the prevention and/or treatment of diseases” (ASCENTAGE PHARMA (SUZHOU) CO., LTD., priority 2018, dated 2022).
pIC50: −log10 of the molar value.

Columns and labels:
[1] = test system: human MV-4-11 AML xenograft; experiment: MV-4-11 AML xenograft in Balb/c nude mice; format: in vivo, mouse; details: for Response rate @D 22: mPD (progressive disease) / Best response rate: mPD (progressive disease): compound 6 100 mg/kg and/or APG-115 100 mg/kg, mice per group; for Response rate @D 22: mPD (progressive disease) / RTV @ D 22 / T/C (%) @ D 22: day 22; for RTV @ D 22 / T/C (%) @ D 22: compound 6 100 mg/kg p.o. qd×22 d and/or APG-115 100 mg/kg orally daily d1-7 and d16-22
Description: A subcutaneous xenograft tumor model of human tumor immunodeficient mice was established by cell inoculation (see: Gould S E et al. Translational value of mouse models in oncology drug development. Nature medicine. 2015 21, 431-439; and, Souers A J et al. ABT-199, a potent and selective BCL-2 inhibitor, achieves antitumor activity while sparing platelets. Nature medicine. 2012 19.202-208): tumor cells in logarithmic growth phase were collected, counted and resuspended in 1×PBS, and the cell suspension concentration was adjusted to 2.5-5×10^7/mL. Using a 1 mL syringe ([…]), the tumor cells were inoculated subcutaneously in the right side of immunodeficient mice, 5-10×106/0.2 mL/mouse (experimental animals were purchased from Beijing Vital River Laboratory Animal Technology Co., Ltd. SCXK (Beijing) 2016-0006). All animal experiments were strictly in accordance with the laboratory animal use and management practices of GenePharma Co., Ltd. and Ascentage Pharma Group Co., Ltd. The calculation of relevant parameters referred to the Chinese CFDA “Guidelines for Non-Clinical Research Techniques of Cytotoxic Antitumor Drugs”.
Animal body weight and tumor size were measured twice a week during the experiment. The conditions and death of the animals were observed every day. Routine monitoring included the effects of tumor growth and treatment on normal animal behaviors, including activity, feeding and drinking situations, weight gain or loss, eyes, coat and other abnormalities in the experimental animals. The deaths and clinical symptoms observed during the experiment were recorded in the raw data. The entire operations of administration, measurement of mouse body weight and tumor volume were performed in a clean bench. Plasma and tumor tissues were collected, weighed and photographed after the end of the last administration according to the experimental protocol. Plasma and tumor samples were frozen and stored at −80° C.
Tumor volume (TV) was calculated as: TV=a×b2/2, in which a and b represented the length and width of the tumor as measured, respectively. The relative tumor volume (RTV) was calculated as: RTV=Vt/V1, in which V1 was the tumor volume at the time of grouping and administration, and Vt was the tumor volume measured on a day after administration. The evaluation index of anti-tumor activity was the relative tumor proliferation rate T/C (%), which was calculated as: relative tumor proliferation rate T/C (%)=(TRTV/CRTV)×100%, in which TRTV was the RTV of the treatment group, CRTV was the RTV of the vehicle control group; tumor remission rate (%) was calculated as: (the number of SD (stable disease), PR (tumor partial regression) and CR (tumor complete regression) in the tumor-bearing mice after treatment)/the total number of mice in the group×100%. Change of body weight %=(measured body weight−body weight at the time of grouping)/body weight at the time of grouping×100%.
The synergistic analysis was performed by the following formula (Gould S E et al. Translational value of mouse models in oncology drug development. Nature medicine. 2015 21, 431-439): synergy factor=((A/C)×(B/C))/(AB/C); A=RTV value of the group administered with A only; B═RTV value of the group administered with B only; C=RTV value of the vehicle control group; AB=RTV value of the group administered with A and B in combination (Clarke R. Issues in experimental design and endpoint analysis in the study of experimental cytotoxic agents in vivo in breast cancer and other models [J]. Breast Cancer Research & Treatment, 1997, 46(2-3): 255-278).
(1) The experimental method was as described in Section (2) of Example 1. Compound 6 is a selective BCL-2 inhibitor developed by the Ascentage Pharma Group. The agent is currently under clinical development for cancer therapy both in China and in the US. Enhanced anti-proliferation activity of APG-115 in combination with compound 6 has been observed in cell-based assay in AML cell lines in vitro. […]

[2] = test system: OCI-AML-3 (acute myeloid leukemia (AML)); experiment: CellTiter-Glo (CTG) cell proliferation assay, OCI-AML-3; format: cell-based; details: Homo sapiens; OCI-AML-3, single agent alone, 24 hours; read-out: IC50 for inhibition of proliferation
Method: Anti-proliferative effects were tested by CellTiter-Glo® (CTG) assay. Cells were seeded in 96-well plates and treated with different concentrations of test substance for 24 hours. […] Each test dose was tested with 3 replicate wells. Usually, 9 series of doses of the test substance were selected, and added to 96-well plates, 5 μl/well. For the combination experiment, the final volume of the two test substances was 5 μl/well. Each test dose was tested with 3 replicate wells. On the same plate, 3-6 wells were selected and added with 100 μl of dilution solution as a control group, and another 3-6 wells were used as a blank control. […] After mixing on a shaker for 2 minutes, leaving at room temperature for 10 minutes, the fluorescence value was read by using a Biotek synergy HIMF plate reader. […] For the combination test, the cell viability was calculated by normalizing the average OD value of 3 duplicate wells of the single drug control. […] Cell viability (%) values of Compound 6 alone and the combination of Compound 6 and APG-115 in the following malignant tumor cells were determined in the CTG experiment: OCI-AML-3 (acute myeloid leukemia (AML)), MV-4-11 (acute myeloid leukemia (AML)), KMS-26 (multiple myeloma (MM)), KMS-11 (multiple myeloma (MM)).

Compound	Response rate @D 22: mPD (progressive disease) [1]	Best response rate: mPD (progressive disease) [1]	RTV @ D 22 [1]	T/C (%) @ D 22 [1]	pIC50 [2]
CCN1[C@@H](C(=O)NC23CCC(C(=O)O)(CC2)CC3)[C@H](c2cccc(Cl)c2F)[C@]2(C(=O)Nc3cc(Cl)ccc32)C12CCCCC2 [APG-115]	6/6 mPD	6/6 mPD	9.2 ± 2.3	67.1%	5.62
O=C(NS(=O)(=O)c1ccc(NC[C@H]2COCCO2)c([N+](=O)[O-])c1)c1ccc(N2CCN(CC3=C(c4ccc(Cl)cc4)CC4(CCC4)CC3)CC2)cc1Oc1cnc2[nH]ccc2c1 [Compound 6, (S)-N-((4-(((1,4-dioxan-2-yl)methyl)amino)-3-nitrophe-nyl)sulfonyl)-2-((1H-pyrrolo[2,3-b]pyridin-5-yl)oxy)-4-(4-((6-(4-chlorophenyl)spiro[3.5]non-6-en-7-yl)meth-yl)piperazin-1-yl)benzamide]	6/6 mPD	6/6 mPD	7.5 ± 0.9	55.1%	4.99
